Measurements published in US20250144067A1, “PERSONALIZED STARVATION THERAPY FOR CANCER” (Faeth Therapeutics, Inc., priority 2021, published 2025).
Counter-ions that a name gives are not always drawn. Like-named read-outs stand apart in the source and are kept apart here.

Columns and labels:
[1] = system: NCI-H292 lung cancer cells; experiment: FDA drug screening, complete media vs cholesterol-free media without statin (TABLE 1); format: cell-based, human
[2] = system: NCI-H292 lung cancer cells; experiment: FDA drug screening, complete media vs cholesterol-free media with simvastatin (TABLE 2); format: cell-based, human
[3] = Complete minus Cholesterol-free, >0 enhanced anti-cancer activity, about 0 neutral, <0 antagonist
[4] = NCI-H292 cells, cholesterol-free media without statin
[5] = NCI-H292 cells, FDA library drug in cholesterol-free media with simvastatin 0.04 μM
[6] = NCI-H292 cells, FDA library drug in complete media
[7] = complete media vs cholesterol-free media + simvastatin (0.04 μM), >0 enhanced anti-cancer activity, about 0 neutral, <0 antagonist
[8] = NCI-H292 cells, cholesterol-free media without statin, FDA drug library screen
[9] = NCI-H292 cells, complete media, FDA drug library screen
[10] = complete vs cholesterol-free media, >0 enhanced anti-cancer activity, about 0 neutral, <0 antagonist
[11] = NCI-H292 cells, FDA drug library screen, cholesterol-free media with simvastatin 0.04 μM
[12] = NCI-H292 cells, FDA drug library screen, complete media
[13] = complete media minus cholesterol-free media + simvastatin, >0 enhanced anti-cancer activity, about 0 neutral, <0 antagonist
[14] = NCI-H292 cells, drug in cholesterol-free media with simvastatin 0.04 μM
[15] = NCI-H292 cells, drug in complete media
[16] = complete vs cholesterol-free media, greater than 0 enhanced anti-cancer activity, about 0 neutral, below 0 antagonists
[17] = NCI-H292 cells, cholesterol-free media with simvastatin 0.04 μM, cell growth value in FDA drug screen
[18] = NCI-H292 cells, complete media, cell growth value in FDA drug screen

Compound	Difference [1, 3]	Cholesterol-free [1, 4]	Complete ([1]; NCI-H292 cells, complete media)	Difference [2, 7]	Cholesterol-free [1, 8]	Complete [1, 9]	Cholesterol-free media + simvastatin (0.04 μM) [2, 11]	Complete Media [2, 12]	other results
Adenine (hemisulfate)	–	–	–	–	–	–	–	–	Cholesterol-free [1]: 1.657; Complete [1]: 0.9172; Difference [1]: −0.74; Cholesterol-free media + simvastatin (0.04 μM) [2]: 1.503; Complete Media [2]: 1.604; Difference [2]: 0.10
CCS(=O)(=O)N1CC(CC#N)(n2cc(-c3ncnc4[nH]ccc34)cn2)C1 [Baricitinib]	−0.22	0.7863	0.5701	−0.32	–	–	–	–	Cholesterol-free media + simvastatin (0.04 μM) [2, 5]: 1.286; Complete Media [2, 6]: 0.9674
Cc1ncc(CSSCc2cnc(C)c(O)c2CO)c(CO)c1O [Pyrithioxin (dihydrochloride)]	–	–	–	–	0.8349	1.062	0.9622	1.11	Difference [1, 10]: 0.23; Difference [2, 13]: 0.15
CC[C@H]1OC(=O)[C@H](C)[C@@H](O[C@H]2C[C@@](C)(OC)[C@@H](O)[C@H](C)O2)[C@H](C)[C@@H](O[C@@H]2O[C@H](C)C[C@H](N(C)C)[C@H]2O)[C@](C)(O)C[C@@H](C)CN(C)[C@H](C)[C@@H](O)[C@]1(C)O [Azithromycin]	0.05	–	–	−0.17	1.249	1.303	–	–	Cholesterol-free media + simvastatin (0.04 μM) [2, 14]: 1.336; Complete Media [2, 15]: 1.162
CC(C)n1nccc1-c1ncccc1COc1cccc(O)c1C=O [Voxelotor]	–	1.146	0.7013	−0.38	–	–	–	–	Difference [1, 16]: −0.44; Cholesterol-free media + simvastatin (0.04 μM) [2, 5]: 1.853; Complete Media [2, 6]: 1.475
O=C(O)CCCC[C@@H]1SC[C@@H]2NC(=O)N[C@@H]21 [Biotin]	–	–	–	–	–	–	–	–	Cholesterol-free [1]: 1.067; Complete [1]: 0.6067; Difference [1]: −0.46; Cholesterol-free media + simvastatin (0.04 μM) [2]: 1.06; Complete Media [2]: 0.9767; Difference [2]: −0.08
COS(=O)(=O)[O-].COc1cc(N)cn[n+]1-c1ccccc1 [Amezinium (methylsulfate)]	–	–	–	–	1.242	1.933	1.322	1.744	Difference ([1]; complete vs cholesterol-free media, […]): 0.69; Difference ([2]; complete media minus cholesterol-free media + simvastatin, […]): 0.42
CC(=O)N(CC(O)CO)c1c(I)c(C(=O)NCCO)c(I)c(C(=O)NCC(O)CO)c1I (stereo not drawn) [Ioxilan]	0.04	–	–	−0.35	1.015	1.05	–	–	Cholesterol-free media + simvastatin (0.04 μM) [2, 5]: 1.221; Complete Media [2, 6]: 0.868
Cc1ccc(NC(=O)c2ccc(CN3CCN(C)CC3)cc2)cc1Nc1nc(-c2cccnc2)cs1 [Masitinib]	−0.19	0.8775	0.6881	−0.13	–	–	0.9334	0.8067	–
CC(C)CN(C[C@@H](O)[C@H](Cc1ccccc1)NC(=O)O[C@H]1CCOC1)S(=O)(=O)c1ccc(N)cc1 [Amprenavir]	–	–	–	–	0.8915	1.403	1.669	1.996	Difference [1, 10]: 0.51; Difference [2, 13]: 0.33
C[C@]12CC[C@H]3[C@@H](CC[C@@]45O[C@@H]4C(O)=C(C#N)C[C@]35C)[C@@H]1CC[C@@H]2O [Trilostane]	−0.23	1.238	1.003	−0.25	–	–	–	–	Cholesterol-free media + simvastatin (0.04 μM) [2, 14]: 1.758; Complete Media [2, 15]: 1.505
CCO[C@H]1O[C@@H]2O[C@@]3(C)CC[C@H]4[C@H](C)CC[C@@H]([C@H]1C)[C@@]24OO3 [Artemotil]	−0.21	0.7572	0.5514	−0.16	–	–	0.9606	0.8046	–
CN(C)CCCN1c2ccccc2CCc2ccc(Cl)cc21 [Clomipramine (hydrochloride)]	–	–	–	–	–	–	–	–	Difference ([1]; Complete minus Cholesterol-free, greater than 0 enhanced anti-cancer activity, about 0 neutral, below 0 antagonists): −0.54; Cholesterol-free ([1]; NCI-H292 cells in cholesterol-free media without statin): 1.47; Complete ([1]; NCI-H292 cells in complete media): 0.9281; Cholesterol-free media + simvastatin (0.04 μM) [2, 17]: 0.9105; Complete Media [2, 18]: 1.028; Difference [2, 13]: 0.12
Sisomicin (sulfate)	−0.04	–	–	–	0.9293	0.8918	–	–	Cholesterol-free media + simvastatin (0.04 μM) [2, 17]: 0.697; Complete Media [2, 18]: 0.7346; Difference [2, 13]: 0.04
NNc1nncc2ccccc12 [Hydralazine (hydrochloride)]	–	1.529	1.081	–	–	–	–	–	Difference [1, 16]: −0.45; Cholesterol-free media + simvastatin (0.04 μM) [2, 17]: 1.049; Complete Media [2, 18]: 1.113; Difference [2, 13]: 0.06
COC(=O)[C@@H]1CC2=CC(=O)CC[C@]2(C)[C@@]23O[C@@H]2C[C@@]2(C)[C@@H](CC[C@@]24CCC(=O)O4)[C@H]13 [Eplerenone]	–	–	–	−0.19	1.018	1.291	–	–	Difference [1, 10]: 0.27; Cholesterol-free media + simvastatin (0.04 μM) [2, 14]: 1.039; Complete Media [2, 15]: 0.8449
CO[C@@]1(NC(=O)CSCC#N)C(=O)N2C(C(=O)O)=C(CSc3nnnn3C)CS[C@@H]21 [Cefmetazole (sodium)]	–	–	–	−0.16	0.6502	0.9897	1.32	1.164	Difference [1, 10]: 0.34
COc1ccc(NC(=O)c2ccc(C(=N)N(C)C)cc2)c(C(=O)Nc2ccc(Cl)cn2)c1 [Betrixaban]	–	–	–	−0.68	0.6104	1.062	–	–	Difference [1, 10]: 0.45; Cholesterol-free media + simvastatin (0.04 μM) [2, 5]: 1.424; Complete Media [2, 6]: 0.7486
CC(C)Oc1ccc(-c2nc(-c3cccc4c3CC[C@@H]4NCCO)no2)cc1C#N [Ozanimod]	−0.03	–	–	−0.17	1.036	1.004	–	–	Cholesterol-free media + simvastatin (0.04 μM) [2, 14]: 1.119; Complete Media [2, 15]: 0.9531
C[C@@H]1O[C@@H](O[C@H]2C[C@@H](O)[C@]3(CO)[C@H]4[C@H](O)C[C@]5(C)[C@@H](C6=CC(=O)OC6)CC[C@]5(O)[C@@H]4CC[C@]3(O)C2)[C@H](O)[C@H](O)[C@H]1O.O.O.O.O.O.O.O.O [Ouabain (Octahydrate)]	–	–	–	–	−0.009774	−0.0006686	–	–	Difference ([1]; Complete minus Cholesterol-free, […]): 0.01; Cholesterol-free media + simvastatin (0.04 μM) ([2]; NCI-H292 cells, cholesterol-free media with simvastatin 0.04 μM, FDA drug library screen (TABLE 2)): 0.0005446; Complete Media ([2]; NCI-H292 cells, complete media, FDA drug library screen (TABLE 2)): −0.01106; Difference ([2]; complete media minus cholesterol-free media + simvastatin (0.04 μM), […]): −0.01
O=C1CCc2ccc(OCCCCN3CCN(c4cccc(Cl)c4Cl)CC3)cc2N1 [Aripiprazole]	–	–	–	−0.24	–	–	–	–	Difference ([1]; Complete minus Cholesterol-free, greater than 0 enhanced anti-cancer activity, about 0 neutral, below 0 antagonist): −0.16; Cholesterol-free ([1]; NCI-H292 cells, FDA drug library screen, cholesterol-free media without statin): 0.9968; Complete [1, 12]: 0.833; Cholesterol-free media + simvastatin (0.04 μM) [2, 14]: 1.264; Complete Media [2, 15]: 1.028
CO/N=C(\C(=O)N[C@@H]1C(=O)N2C(C(=O)O)=C(CSc3nnnn3C)CS[C@H]12)c1csc(N)n1 [Cefmenoxime (hydrochloride)]	−0.30	1.225	0.93	−0.09	–	–	0.8027	0.7093	–
